Measurements: patent US8962641B2, “Pyrimidine-substituted pyrrolidine derivatives, pharmaceutical compositions and uses thereof” (Boehringer Ingelheim International GmbH, priority 2013, dated 2015)

Molecular target: human ACC2 (Homo sapiens (Human), UniProt O00763)
Experiment: ACC2 assay (spectrophotometric 384 well assay, NADH-linked kinetic method)
Format: biochemical
Settings: hACC2 construct lacking 128 N-terminal amino acids; coupled lactate dehydrogenase/pyruvate kinase reaction, 340 nm, 25° C.
Outline: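 Baculovirus/insect-cell human ACC2, anion-exchange purified; ADP formation coupled to pyruvate kinase/lactate dehydrogenase, NADH loss followed at 340 nm, 25° C, 15 min. Final 200 μM NADH and acetyl-CoA, 500 uM ATP; vehicle and no-acetyl-CoA wells set 100% and 0%.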

Chain of human ACC2 (O00763 129-2458): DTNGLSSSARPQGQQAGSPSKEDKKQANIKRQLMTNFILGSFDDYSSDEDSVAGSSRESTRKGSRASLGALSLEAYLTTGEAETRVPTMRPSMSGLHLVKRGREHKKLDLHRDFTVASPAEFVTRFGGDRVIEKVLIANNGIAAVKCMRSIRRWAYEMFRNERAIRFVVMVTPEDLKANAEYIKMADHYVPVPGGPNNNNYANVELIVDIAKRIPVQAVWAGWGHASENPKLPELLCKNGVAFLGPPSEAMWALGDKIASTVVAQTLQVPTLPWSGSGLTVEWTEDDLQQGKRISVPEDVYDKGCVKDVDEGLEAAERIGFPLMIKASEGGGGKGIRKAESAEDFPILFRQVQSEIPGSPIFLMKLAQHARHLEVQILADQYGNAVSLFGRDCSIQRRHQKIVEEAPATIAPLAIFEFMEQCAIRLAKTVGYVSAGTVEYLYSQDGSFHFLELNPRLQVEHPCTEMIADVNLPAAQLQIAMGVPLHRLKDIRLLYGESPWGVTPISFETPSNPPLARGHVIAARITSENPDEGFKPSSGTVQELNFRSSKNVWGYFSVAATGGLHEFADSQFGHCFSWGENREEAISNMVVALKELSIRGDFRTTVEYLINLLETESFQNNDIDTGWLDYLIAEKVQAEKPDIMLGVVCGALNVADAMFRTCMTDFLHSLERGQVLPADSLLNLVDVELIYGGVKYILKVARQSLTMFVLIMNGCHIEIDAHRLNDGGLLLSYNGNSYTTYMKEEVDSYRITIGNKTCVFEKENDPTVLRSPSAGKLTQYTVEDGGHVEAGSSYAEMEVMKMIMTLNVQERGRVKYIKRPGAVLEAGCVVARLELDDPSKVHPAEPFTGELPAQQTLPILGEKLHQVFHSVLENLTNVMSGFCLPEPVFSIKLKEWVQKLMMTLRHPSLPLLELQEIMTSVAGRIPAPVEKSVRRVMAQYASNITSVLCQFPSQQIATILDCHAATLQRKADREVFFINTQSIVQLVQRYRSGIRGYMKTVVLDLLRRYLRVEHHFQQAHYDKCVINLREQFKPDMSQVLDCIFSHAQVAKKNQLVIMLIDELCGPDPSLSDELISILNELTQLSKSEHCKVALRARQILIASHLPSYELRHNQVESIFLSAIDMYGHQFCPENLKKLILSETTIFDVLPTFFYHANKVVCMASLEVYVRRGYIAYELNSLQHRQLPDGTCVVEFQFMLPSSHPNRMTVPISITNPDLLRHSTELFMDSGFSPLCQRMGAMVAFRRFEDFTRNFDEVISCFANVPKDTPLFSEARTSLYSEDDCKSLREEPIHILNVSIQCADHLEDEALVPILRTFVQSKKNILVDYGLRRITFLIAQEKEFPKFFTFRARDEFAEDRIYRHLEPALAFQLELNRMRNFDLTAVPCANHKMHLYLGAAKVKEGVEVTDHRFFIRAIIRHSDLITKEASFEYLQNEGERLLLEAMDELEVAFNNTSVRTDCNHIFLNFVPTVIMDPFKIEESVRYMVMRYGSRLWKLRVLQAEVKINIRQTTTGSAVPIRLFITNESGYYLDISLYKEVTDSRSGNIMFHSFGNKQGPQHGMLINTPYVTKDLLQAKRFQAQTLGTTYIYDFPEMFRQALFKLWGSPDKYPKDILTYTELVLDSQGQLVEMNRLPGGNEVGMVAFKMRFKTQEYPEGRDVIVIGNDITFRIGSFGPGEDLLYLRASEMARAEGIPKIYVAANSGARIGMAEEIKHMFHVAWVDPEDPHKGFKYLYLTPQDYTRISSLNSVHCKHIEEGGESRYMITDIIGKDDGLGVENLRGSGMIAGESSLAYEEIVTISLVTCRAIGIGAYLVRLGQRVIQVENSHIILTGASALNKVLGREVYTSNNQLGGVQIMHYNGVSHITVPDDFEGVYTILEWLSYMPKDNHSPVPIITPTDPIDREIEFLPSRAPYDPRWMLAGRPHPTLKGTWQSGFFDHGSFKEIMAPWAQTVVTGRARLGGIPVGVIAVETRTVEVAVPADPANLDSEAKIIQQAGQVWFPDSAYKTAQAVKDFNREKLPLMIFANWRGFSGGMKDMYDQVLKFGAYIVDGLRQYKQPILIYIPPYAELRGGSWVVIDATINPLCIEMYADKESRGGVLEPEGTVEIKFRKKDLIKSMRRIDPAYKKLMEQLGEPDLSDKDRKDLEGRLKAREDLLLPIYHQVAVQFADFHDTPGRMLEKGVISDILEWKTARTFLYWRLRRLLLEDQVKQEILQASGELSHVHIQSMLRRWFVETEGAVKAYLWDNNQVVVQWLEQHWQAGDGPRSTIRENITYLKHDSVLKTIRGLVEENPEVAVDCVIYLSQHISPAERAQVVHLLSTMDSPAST

SMILES | IC50
CC(=O)N[C@@H](C)c1ccc(O[C@@H]2CCN(c3ncnc(N4CC(C)C4)c3F)C2)cc1 [Example 8.200] | 0.354 µM
CC(=O)N[C@@H](C)c1ccc(O[C@@H]2CCN(c3ncnc(N4CCC(CO)C4)c3F)C2)cc1 (stereo partly drawn) [Example 8.201] | 0.294 µM
CC(=O)N[C@@H](C)c1ccc(O[C@@H]2CCN(c3ncnc(N4CCC(CO)C4)c3F)C2)cc1 (stereo partly drawn) [Example 8.202] | 0.721 µM
CC(=O)N[C@@H](C)c1ccc(O[C@@H]2CCN(c3ccnc(N(C)C[C@@H]4CCCO4)n3)C2)cc1 [Example 8.203] | 0.334 µM
COC[C@H](C)N(C)c1nccc(N2CC[C@@H](Oc3ccc([C@H](C)NC(C)=O)cc3)C2)n1 [Example 8.204] | 0.945 µM
CC(=O)N[C@@H](C)c1ccc(O[C@@H]2CCN(c3nc(N(C)CCO)ncc3F)C2)cc1 [Example 8.205] | 0.607 µM
CC(=O)N[C@@H](C)c1ccc(O[C@@H]2CCN(c3ccnc(N(C)CCC(F)(F)F)n3)C2)cc1 [Example 8.206] | 0.075 µM
CC(=O)N[C@@H](C)c1ccc(O[C@@H]2CCN(c3ccnc(N4CCC(F)(F)CC4)n3)C2)cc1 [Example 8.207] | 0.099 µM
CC(=O)N[C@@H](C)c1ccc(O[C@@H]2CCN(c3ccnc(N4CCCC(F)(F)C4)n3)C2)cc1 [Example 8.208] | 0.172 µM
CC(=O)N[C@@H](C)c1ccc(O[C@@H]2CCN(c3nc(N4CCOC(C)(C)C4)ncc3Cl)C2)cc1 [Example 8.209] | 0.351 µM
CC(=O)N[C@@H](C)c1ccc(O[C@@H]2CCN(c3nc(N4CCOCC4C)ncc3Cl)C2)cc1 (stereo partly drawn) [Example 8.210] | 0.714 µM
CC(=O)N[C@@H](C)c1ccc(O[C@@H]2CCN(c3nc(N(CCO)C4CC4)ncc3Cl)C2)cc1 [Example 8.211] | 0.506 µM
CC(=O)N[C@@H](C)c1ccc(O[C@@H]2CCN(c3ncnc(N4CCc5nocc5C4)c3F)C2)cc1 [Example 8.212] | 0.998 µM
COC1CCN(c2ncnc(N3CC[C@@H](Oc4ccc([C@H](C)NC(C)=O)cc4)C3)c2F)CC1 [Example 8.213] | 0.36 µM
CC(=O)N[C@@H](C)c1ccc(O[C@@H]2CCN(c3ccnc(N4CCC(C)(O)C4)n3)C2)cc1 (stereo partly drawn) [Example 8.214] | 0.865 µM
CC(=O)N[C@@H](C)c1ccc(O[C@@H]2CCN(c3nc(N(C)CCOC(C)(C)C)ncc3F)C2)cc1 [Example 8.215] | 0.719 µM
CC(=O)N[C@@H](C)c1ccc(O[C@@H]2CCN(c3nc(N4CCCOCC4)ncc3F)C2)cc1 [Example 8.216] | 0.125 µM
CC(=O)N[C@@H](C)c1ccc(O[C@@H]2CCN(c3nc(N4CC(F)(F)C(F)(F)C4)ncc3F)C2)cc1 [Example 8.217] | 0.145 µM
CC(=O)N[C@@H](C)c1ccc(O[C@@H]2CCN(c3nc(N4CCCC(F)(F)C4)ncc3F)C2)cc1 [Example 8.218] | 0.14 µM
CC(=O)N[C@@H](C)c1ccc(O[C@@H]2CCN(c3nc(N4CC(C)C4)ncc3Cl)C2)cc1 [Example 8.219] | 0.355 µM
CC(=O)N[C@@H](C)c1ccc(O[C@@H]2CCN(c3nc(N4CCCOCC4)ncc3Cl)C2)cc1 [Example 8.220] | 0.182 µM
CC(=O)N[C@@H](C)c1ccc(O[C@@H]2CCN(c3nc(N(C)C4CCOCC4)ncc3Cl)C2)cc1 [Example 8.221] | 0.269 µM
CC(=O)N[C@@H](C)c1ccc(O[C@@H]2CCN(c3nc(N4CC(F)(F)C(F)(F)C4)ncc3Cl)C2)cc1 [Example 8.222] | 0.15 µM

SMILES | IC50
CC(=O)N[C@@H](C)c1ccc(O[C@@H]2CCN(c3nc(N(C)CC(C)C)ncc3Cl)C2)cc1 [Example 8.223] | 0.103 µM
CC(=O)N[C@@H](C)c1ccc(O[C@@H]2CCN(c3nc(N4CCOC(C)(C)C4)ncc3F)C2)cc1 [Example 8.224] | 0.17 µM
COC[C@@H](C)N(C)c1ncc(Cl)c(N2CC[C@@H](Oc3ccc([C@H](C)NC(C)=O)cc3)C2)n1 [Example 8.225] | 0.199 µM
CC(=O)N[C@@H](C)c1ccc(O[C@@H]2CCN(c3nc(N4CCC5(CC5)C4)ncc3F)C2)cc1 [Example 8.226] | 0.052 µM
COC[C@H]1CCCN1c1nccc(N2CC[C@@H](Oc3ccc([C@H](C)NC(C)=O)cc3)C2)n1 [Example 8.228] | 0.619 µM
COC1CCN(c2nccc(N3CC[C@@H](Oc4ccc([C@H](C)NC(C)=O)cc4)C3)n2)CC1 [Example 8.229] | 0.641 µM
CC(=O)N[C@@H](C)c1ccc(O[C@@H]2CCN(c3ccnc(N4CC[C@H](F)C4)n3)C2)cc1 [Example 8.230] | 0.485 µM
CC(=O)N[C@@H](C)c1ccc(O[C@@H]2CCN(c3ncnc(N4CC(F)(F)C(F)(F)C4)c3F)C2)cc1 [Example 8.231] | 0.127 µM
CC(=O)N[C@@H](C)c1ccc(O[C@@H]2CCN(c3ncnc(N(C)C4CCC4)c3F)C2)cc1 [Example 8.232] | 0.06 µM
CC(=O)N[C@@H](C)c1ccc(O[C@@H]2CCN(c3ncnc(N4CCCC4C)c3F)C2)cc1 (stereo partly drawn) [Example 8.233] | 0.153 µM
CO[C@@H]1CCN(c2ncnc(N3CC[C@@H](Oc4ccc([C@H](C)NC(C)=O)cc4)C3)c2F)C1 [Example 8.234] | 0.898 µM
CC(=O)N[C@@H](C)c1ccc(O[C@@H]2CCN(c3ncnc(N4CCC5(CC5)C4)c3F)C2)cc1 [Example 8.235] | 0.045 µM
CC(=O)N[C@@H](C)c1ccc(O[C@@H]2CCN(c3ncnc(N(C)C4CCCOC4)c3F)C2)cc1 (stereo partly drawn) [Example 8.236] | 0.314 µM
CC(=O)N[C@@H](C)c1ccc(O[C@@H]2CCN(c3ncnc(N4CC(C)(O)C4)c3F)C2)cc1 [Example 8.237] | 0.749 µM
CC(=O)N[C@@H](C)c1ccc(O[C@@H]2CCN(c3nc(N4CCc5nocc5C4)ncc3F)C2)cc1 [Example 8.238] | 0.534 µM
CC(=O)N[C@@H](C)c1ccc(O[C@@H]2CCN(c3nc(N(C)CC(C)O)ncc3F)C2)cc1 (stereo partly drawn) [Example 8.239] | 0.487 µM
CCN(CCO)c1ncc(F)c(N2CC[C@@H](Oc3ccc([C@H](C)NC(C)=O)cc3)C2)n1 [Example 8.240] | 0.215 µM
CC(=O)N[C@@H](C)c1ccc(O[C@@H]2CCN(c3nc(N4CC[C@H](F)C4)ncc3Cl)C2)cc1 [Example 8.241] | 0.594 µM
COCCCN(C)c1nccc(N2CC[C@@H](Oc3ccc([C@H](C)NC(C)=O)cc3)C2)n1 [Example 8.242] | 0.459 µM
CC(=O)N[C@@H](C)c1ccc(O[C@@H]2CCN(c3ccnc(N4CCCC4(C)C)n3)C2)cc1 [Example 8.243] | 0.559 µM
CC(=O)N[C@@H](C)c1ccc(O[C@@H]2CCN(c3nc(N4CC=CC4)ncc3F)C2)cc1 [Example 8.244] | 0.165 µM
CC(=O)N[C@@H](C)c1ccc(O[C@@H]2CCN(c3nc(N4CC[C@H](O)C4)ncc3F)C2)cc1 [Example 8.245] | 0.937 µM
CC(=O)N[C@@H](C)c1ccc(O[C@@H]2CCN(c3ccnc(N4CCc5nocc5C4)n3)C2)cc1 [Example 8.246] | 0.68 µM

SMILES | IC50
CC(=O)N[C@@H](C)c1ccc(O[C@@H]2CCN(c3nc(N(C)CCC(F)(F)F)ncc3Cl)C2)cc1 [Example 8.247] | 0.11 µM
CC(=O)N[C@@H](C)c1ccc(O[C@@H]2CCN(c3nc(N(C)CCO)ncc3Cl)C2)cc1 [Example 8.248] | 1.03 µM
CC(=O)N[C@@H](C)c1ccc(O[C@@H]2CCN(c3ncnc(N4CCCC4(C)C)c3F)C2)cc1 [Example 8.250] | 0.358 µM
CC(=O)N[C@@H](C)c1ccc(O[C@@H]2CCN(c3ncnc(N4CCC(F)(F)CC4)c3F)C2)cc1 [Example 8.251] | 0.097 µM
COC1CCCN(c2ncnc(N3CC[C@@H](Oc4ccc([C@H](C)NC(C)=O)cc4)C3)c2F)C1 (stereo partly drawn) [Example 8.252] | 1.06 µM
CC(=O)N[C@@H](C)c1ccc(O[C@@H]2CCN(c3ccnc(N(C)C4CCC4)n3)C2)cc1 [Example 8.253] | 0.079 µM
CC(=O)N[C@@H](C)c1ccc(O[C@@H]2CCN(c3nc(N4CCCC4C)ncc3F)C2)cc1 (stereo partly drawn) [Example 8.254] | 0.06 µM
CC(=O)N[C@@H](C)c1ccc(O[C@@H]2CCN(c3nc(N(C)C4CCCOC4)ncc3Cl)C2)cc1 (stereo partly drawn) [Example 8.255] | 0.303 µM
CC(=O)N[C@@H](C)c1ccc(O[C@@H]2CCN(c3nc(N4CCC(C)(O)C4)ncc3Cl)C2)cc1 (stereo partly drawn) [Example 8.256] | 0.303 µM
CC(=O)N[C@@H](C)c1ccc(O[C@@H]2CCN(c3nc(N4CCOC(C(F)(F)F)C4)ncc3F)C2)cc1 (stereo partly drawn) [Example 8.257] | 0.121 µM
CC(=O)N[C@@H](C)c1ccc(O[C@@H]2CCN(c3nc(N(C)C[C@@H]4CCCO4)ncc3Cl)C2)cc1 [Example 8.258] | 0.105 µM
CO[C@H]1CCN(c2ncc(F)c(N3CC[C@@H](Oc4ccc([C@H](C)NC(C)=O)cc4)C3)n2)C1 [Example 8.259] | 0.173 µM
CCN(c1nccc(N2CC[C@@H](Oc3ccc([C@H](C)NC(C)=O)cc3)C2)n1)C(C)C [Example 8.260] | 0.18 µM
CC(=O)N[C@@H](C)c1ccc(O[C@@H]2CCN(c3nc(N4CCC(F)(F)CC4)ncc3F)C2)cc1 [Example 8.261] | 0.096 µM
COC[C@@H]1CCCN1c1ncc(F)c(N2CC[C@@H](Oc3ccc([C@H](C)NC(C)=O)cc3)C2)n1 [Example 8.262] | 0.129 µM
CCN(CCO)c1nccc(N2CC[C@@H](Oc3ccc([C@H](C)NC(C)=O)cc3)C2)n1 [Example 8.263] | 0.698 µM
CC(=O)N[C@@H](C)c1ccc(O[C@@H]2CCN(c3ccnc(N4CCCOCC4)n3)C2)cc1 [Example 8.264] | 0.282 µM
CC(=O)N[C@@H](C)c1ccc(O[C@@H]2CCN(c3ccnc(N4CC[C@H](F)C4)n3)C2)cc1 [Example 8.265] | 0.379 µM
CC(=O)N[C@@H](C)c1ccc(O[C@@H]2CCN(c3nc(N(C)CC(C)(C)O)ncc3Cl)C2)cc1 [Example 8.266] | 0.995 µM
CC(=O)N[C@@H](C)c1ccc(O[C@@H]2CCN(c3nc(N(C)C4CCC4)ncc3Cl)C2)cc1 [Example 8.267] | 0.064 µM
CC(=O)N[C@@H](C)c1ccc(O[C@@H]2CCN(c3ncnc(N(C)CC(C)C)c3F)C2)cc1 [Example 8.268] | 0.198 µM
CC(=O)N[C@@H](C)c1ccc(O[C@@H]2CCN(c3ncnc(N4CCC(C)(O)C4)c3F)C2)cc1 (stereo partly drawn) [Example 8.269] | 0.188 µM
COCCCN(C)c1ncnc(N2CC[C@@H](Oc3ccc([C@H](C)NC(C)=O)cc3)C2)c1F [Example 8.270] | 0.455 µM
